Our source for the IC50 values is US20100105655A1, “NOVEL COMPOUNDS 515” (ASTRAZENECA AB, priority 2008, published 2010).

The assay concerns the target T1, IGFR kinase (Homo sapiens, UniProt P08069).
T1 construct: purchased Millipore
Nature of the assay: Enzyme assay (c), IGFR kinase, Caliper LabChip. Type of assay: biochemical. Particulars: 30 nM IGFR kinase, 6 uM ATP, 3 uM peptide mix; read-out: IGFR IC50.

The term IC50 denotes the concentration that gives 50% inhibition.

T1 sequence (P08069 31-1367): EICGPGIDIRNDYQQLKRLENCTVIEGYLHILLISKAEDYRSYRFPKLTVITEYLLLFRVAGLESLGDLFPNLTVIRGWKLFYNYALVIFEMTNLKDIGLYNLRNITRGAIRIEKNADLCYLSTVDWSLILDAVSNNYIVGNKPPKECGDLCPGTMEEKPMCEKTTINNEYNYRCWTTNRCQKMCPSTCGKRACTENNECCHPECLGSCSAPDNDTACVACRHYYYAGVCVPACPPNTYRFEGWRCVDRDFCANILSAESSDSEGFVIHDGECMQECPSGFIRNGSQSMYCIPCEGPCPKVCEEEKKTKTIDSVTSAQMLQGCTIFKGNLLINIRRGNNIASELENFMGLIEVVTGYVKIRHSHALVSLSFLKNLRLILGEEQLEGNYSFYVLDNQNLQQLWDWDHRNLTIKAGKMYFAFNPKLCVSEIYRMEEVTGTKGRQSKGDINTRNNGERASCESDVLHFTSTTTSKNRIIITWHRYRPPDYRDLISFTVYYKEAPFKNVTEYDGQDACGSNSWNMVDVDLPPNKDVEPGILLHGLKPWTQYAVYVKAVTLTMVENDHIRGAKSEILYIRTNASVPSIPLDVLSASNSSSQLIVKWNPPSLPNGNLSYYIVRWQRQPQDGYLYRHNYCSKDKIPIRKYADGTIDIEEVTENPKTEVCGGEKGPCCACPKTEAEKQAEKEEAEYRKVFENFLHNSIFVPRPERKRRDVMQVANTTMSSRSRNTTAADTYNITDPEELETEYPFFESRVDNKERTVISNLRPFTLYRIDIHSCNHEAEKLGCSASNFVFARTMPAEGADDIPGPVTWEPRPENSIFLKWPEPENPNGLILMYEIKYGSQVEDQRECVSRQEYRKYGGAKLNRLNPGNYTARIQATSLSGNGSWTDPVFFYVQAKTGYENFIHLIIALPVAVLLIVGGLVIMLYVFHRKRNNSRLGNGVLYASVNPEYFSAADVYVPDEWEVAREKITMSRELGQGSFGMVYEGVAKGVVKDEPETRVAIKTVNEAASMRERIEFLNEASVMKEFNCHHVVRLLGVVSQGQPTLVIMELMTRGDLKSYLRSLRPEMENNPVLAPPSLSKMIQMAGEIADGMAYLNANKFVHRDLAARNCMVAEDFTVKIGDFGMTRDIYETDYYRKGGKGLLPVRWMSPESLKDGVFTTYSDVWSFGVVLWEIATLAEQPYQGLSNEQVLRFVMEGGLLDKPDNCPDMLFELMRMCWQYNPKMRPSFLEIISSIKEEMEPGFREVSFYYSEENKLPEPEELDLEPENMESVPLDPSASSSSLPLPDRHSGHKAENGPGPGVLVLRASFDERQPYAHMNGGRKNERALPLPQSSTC

In the case of `COc1cc(OC2CCN(C)C2)ccc1Nc1ncc(Br)c(-c2cnc3ccccn23)n1` (stereo not shown) [Example 123, 5-bromo-4-imidazo[1,2-a]pyridin-3-yl-N-[2-methoxy-4-(1-methylpyrrolidin-3-yl)oxy-phenyl]pyrimidin-2-amine], the IC50 stood at 0.005 µM.
The figure for `COc1cc(OC[C@@H]2CCCN2C(C)=O)ccc1Nc1ncc(Cl)c(-c2cnc3ccccn23)n1` [Example 16, 1-[(2S)-2-[[4-[(5-chloro-4-imidazo[1,2-a]pyridin-3-yl-pyrimidin-2-yl)amino]-3-methoxy-phenoxy]methyl]pyrrolidin-1-yl]ethanone] is 0.032 µM; for `COc1ccc(N2CCNCC2)cc1Nc1ncc(F)c(-c2cnc3ccccn23)n1` [Example 75, 5-fluoro-4-imidazo[1,2-a]pyridin-3-yl-N-(2-methoxy-5-piperazin-1-yl-phenyl)pyrimidin-2-amine] it is 0.172 µM; for `COc1cc(CN2CCN(C)CC2)ccc1Nc1ncc(Cl)c(-c2cnc3ccccn23)n1` [Example 21.4, 5-chloro-4-imidazo[1,2-a]pyridin-3-yl-N-[2-methoxy-4-[(4-methylpiperazin-1-yl)methyl]phenyl]pyrimidin-2-amine] it is 0.03 µM.
The figure for `CCOc1cc(N2CCN(C)CC2)ccc1Nc1ncc(Br)c(-c2cnc3ccccn23)n1` [Example 122, 5-bromo-N-[2-ethoxy-4-(4-methylpiperazin-1-yl)phenyl]-4-imidazo[1,2-a]pyridin-3-yl-pyrimidin-2-amine] is 0.008 µM; for `COc1cc(C(=O)N2CCNCC2)ccc1Nc1ncc(Cl)c(-c2cnc3ccccn23)n1` [Example 30, [4-[(5-chloro-4-imidazo[1,2-a]pyridin-3-yl-pyrimidin-2-yl)amino]-3-methoxy-phenyl]-piperazin-1-yl-methanone] it is 0.033 µM; for `COc1cc(N2CCN(C(C)=O)CC2)ccc1Nc1ncc(Cl)c(-c2cnc3cc(Br)ccn23)n1` [Example 126.19, 1-[4-[4-[[4-(7-bromoimidazo[1,2-a]pyridin-3-yl)-5-chloro-pyrimidin-2-yl]amino]-3-methoxy-phenyl]piperazin-1-yl]ethanone] it is 0.015 µM.
Take `COc1cc(N2CCC(O)CC2)ccc1Nc1ncc(F)c(-c2cnc3ccccn23)n1` [Example 111, 1-[4-[(5-fluoro-4-imidazo[1,2-a]pyridin-3-yl-pyrimidin-2-yl)amino]-3-methoxy-phenyl]piperidin-4-ol]: the IC50 stood at 0.049 µM.
The figure for `COc1cc(N2CCNCC2)ccc1Nc1ncc(F)c(-c2cnn3ccccc23)n1` [Example 171, 5-fluoro-N-(2-methoxy-4-piperazin-1-yl-phenyl)-4-pyrazolo[1,5-a]pyridin-3-yl-pyrimidin-2-amine] is 0.017 µM; for `COc1cc(C2CCN(C(C)=O)CC2)ccc1Nc1ncc(C)c(-c2cnn3ccccc23)n1` [Example 233, 1-[4-[3-methoxy-4-[(5-methyl-4-pyrazolo[1,5-a]pyridin-3-yl-pyrimidin-2-yl)amino]phenyl]-1-piperidyl]ethanone] it is 0.009 µM.
On to `COc1cc(N2CCN(C(C)=O)CC2)cc(F)c1Nc1ncc(Cl)c(-c2cnc3ccccn23)n1` [Example 3.26, 1-[4-[4-[(5-chloro-4-imidazo[1,2-a]pyridin-3-yl-pyrimidin-2-yl)amino]-3-fluoro-5-methoxy-phenyl]piperazin-1-yl]ethanone], for which the IC50 amounted to 0.019 µM.
The figure for `COc1cc(N2CCN(C(C)=O)CC2)ccc1Nc1ncc(C2CC2)c(-c2cnn3ccccc23)n1` [Example 234, 1-[4-[4-[(5-cyclopropyl-4-pyrazolo[1,5-a]pyridin-3-yl-pyrimidin-2-yl)amino]-3-methoxy-phenyl]piperazin-1-yl]ethanone] is 0.031 µM; for `COc1cc(N2CC3CN(C(C)=O)CC(C2)O3)ccc1Nc1ncc(Cl)c(-c2cnc3c(F)cccn23)n1` [Example 215, 1-[3-[4-[[5-chloro-4-(8-fluoroimidazo[1,2-a]pyridin-3-yl)pyrimidin-2-yl]amino]-3-methoxy-phenyl]-9-oxa-3,7-diazabicyclo[3.3.1]nonan-7-yl]ethanone] it is 0.009 µM.
For the molecule `COCCOC(=O)N1CCN(c2ccc(Nc3ncc(Cl)c(-c4cnc5ccccn45)n3)c(OC)c2)CC1` [Example 45, 2-methoxyethyl 4-[4-[(5-chloro-4-imidazo[1,2-a]pyridin-3-yl-pyrimidin-2-yl)amino]-3-methoxy-phenyl]piperazine-1-carboxylate], the IC50 worked out at 0.024 µM.
The value for `COc1cc(N2CCN(CCO)CC2)ccc1Nc1ncc(C)c(-c2cnc3ccccn23)n1` [Example 101, 2-[4-[4-[(4-imidazo[1,2-a]pyridin-3-yl-5-methyl-pyrimidin-2-yl)amino]-3-methoxy-phenyl]piperazin-1-yl]ethanol] was 0.235 µM; that for `COc1cc2c(cc1Nc1ncc(Cl)c(-c3cnn4ccccc34)n1)NCC2` [Example 155, N-(5-chloro-4-pyrazolo[1,5-a]pyridin-3-yl-pyrimidin-2-yl)-5-methoxy-indolin-6-amine] was 0.12 µM.
The value for `CC(=O)N1CCN(c2cc(C)c(Nc3ncc(Cl)c(-c4cnc5ccccn45)n3)cc2F)CC1` [Example 3.33, 1-[4-[4-[(5-chloro-4-imidazo[1,2-a]pyridin-3-yl-pyrimidin-2-yl)amino]-2-fluoro-5-methyl-phenyl]piperazin-1-yl]ethanone] was 0.016 µM; that for `COc1cc(N2CCN(C(CO)CO)CC2)ccc1Nc1ncc(C)c(-c2cnc3ccccn23)n1` [Example 269, 2-[4-[4-[(4-imidazo[1,2-a]pyridin-3-yl-5-methyl-pyrimidin-2-yl)amino]-3-methoxy-phenyl]piperazin-1-yl]propane-1,3-diol] was 0.016 µM; that for `COCCN1CCN(c2ccc(Nc3ncc(F)c(-c4cnc5ccccn45)n3)c(OC)c2)CC1` [Example 82, 5-fluoro-4-imidazo[1,2-a]pyridin-3-yl-N-[2-methoxy-4-[4-(2-methoxyethyl)piperazin-1-yl]phenyl]pyrimidin-2-amine] was 0.043 µM.
The figure for `COc1cc(C2CCN(C(=O)[C@H](C)O)CC2)ccc1Nc1ncc(Cl)c(-c2cnc3ccccn23)n1` [Example 28.4, (2S)-1-[4-[4-[(5-chloro-4-imidazo[1,2-a]pyridin-3-yl-pyrimidin-2-yl)amino]-3-methoxy-phenyl]-1-piperidyl]-2-hydroxy-propan-1-one] is 0.014 µM; for `COc1cc(C2CCN(C(=O)[C@H](C)O)CC2)ccc1Nc1ncc(Cl)c(-c2cnn3ccccc23)n1` [Example 139, (2S)-1-[4-[4-[(5-chloro-4-pyrazolo[1,5-a]pyridin-3-yl-pyrimidin-2-yl)amino]-3-methoxy-phenyl]-1-piperidyl]-2-hydroxy-propan-1-one] it is 0.012 µM; for `COc1cc(N2CCN(C(=O)C3CC3)CC2)ccc1Nc1ncc(Cl)c(-c2cnc3ccccn23)n1` [Example 43, [4-[4-[(5-chloro-4-imidazo[1,2-a]pyridin-3-ylpyrimidin-2-yl)amino]-3-methoxyphenyl]piperazin-1-yl]-cyclopropylmethanone] it is 0.01 µM.
`COc1cc(N2CCN(C(C)=O)C(C)C2)ccc1Nc1ncc(Cl)c(-c2cnc3ccccn23)n1` (stereo not shown) [Example 3.36, 1-[4-[4-[(5-chloro-4-imidazo[1,2-a]pyridin-3-yl-pyrimidin-2-yl)amino]-3-methoxy-phenyl]-2-methyl-piperazin-1-yl]ethanone]: the IC50 came to 0.008 µM.
The figure for `COc1cc(N2CCN(CCO)CC2)ccc1Nc1ncc(C)c(-c2cnn3ccccc23)n1` [Example 161, 2-[4-[3-methoxy-4-[(5-methyl-4-pyrazolo[1,5-a]pyridin-3-yl-pyrimidin-2-yl)amino]phenyl]piperazin-1-yl]ethanol] is 0.011 µM; for `CNCC(=O)N1CCN(c2ccc(Nc3ncc(Cl)c(-c4cnc5c(F)cc(F)cn45)n3)c(OC)c2)CC1` [Example 248, 1-[4-[4-[[5-chloro-4-(6,8-difluoroimidazo[1,2-a]pyridin-3-yl)pyrimidin-2-yl]amino]-3-methoxy-phenyl]piperazin-1-yl]-2-(methylamino)ethanone] it is 0.006 µM; for `COc1cc(CN2CCN(C(C)=O)CC2)ccc1Nc1ncc(Cl)c(-c2cnc3ccccn23)n1` [Example 21.6, 1-[4-[[4-[(5-chloro-4-imidazo[1,2-a]pyridin-3-yl-pyrimidin-2-yl)amino]-3-methoxy-phenyl]methyl]piperazin-1-yl]ethanone] it is 0.026 µM.
The value for `COc1cc(C2CCNCC2)ccc1Nc1ncc(C)c(-c2cnn3ccccc23)n1` [Example 162, N-[2-methoxy-4-(4-piperidyl)phenyl]-5-methyl-4-pyrazolo[1,5-a]pyridin-3-yl-pyrimidin-2-amine] was 0.002 µM; that for `COc1cc(N2CC3CN(C(=O)[C@@H](N)CO)CC(C2)O3)ccc1Nc1ncc(Cl)c(-c2cnc3c(F)cccn23)n1` [Example 210, (2S)-2-amino-1-[7-[4-[[5-chloro-4-(8-fluoroimidazo[1,2-a]pyridin-3-yl)pyrimidin-2-yl]amino]-3-methoxy-phenyl]-9-oxa-3,7-diazabicyclo[3.3.1]nonan-3-yl]-3-hydroxy-propan-1-one] was 0.036 µM.
On to `COc1cc(OC[C@H]2CCCN2)ccc1Nc1ncc(Cl)c(-c2cnc3ccccn23)n1` [Example 6.1, 5-chloro-4-imidazo[1,2-a]pyridin-3-yl-N-[2-methoxy-4-[[(2R)-pyrrolidin-2-yl]methoxy]phenyl]pyrimidin-2-amine], for which the half-inhibitory concentration (IC50) is 0.012 µM.
The figure for `COc1cc(C2CCN(C(=O)CO)CC2)ccc1Nc1ncc(Cl)c(-c2cnc3ccccn23)n1` [Example 28.5, 1-[4-[4-[(5-chloro-4-imidazo[1,2-a]pyridin-3-yl-pyrimidin-2-yl)amino]-3-methoxy-phenyl]-1-piperidyl]-2-hydroxy-ethanone] is 0.004 µM.
Regarding `COc1cc(N2CCN(C(=O)[C@@H]3CCCCN3)CC2)ccc1Nc1ncc(Cl)c(-c2cnc3ccccn23)n1` [Example 24.2, [4-[4-[(5-chloro-4-imidazo[1,2-a]pyridin-3-yl-pyrimidin-2-yl)amino]-3-methoxy-phenyl]piperazin-1-yl]-[(2S)-2-piperidyl]methanone], the IC50 came to 0.006 µM.
